In patent publication US6737383B1, “Herbicidal oxadiazolidines” (priority 1999, dated 2004):

Tests used:
[1] = system: ivyleaf morningglory; assay: Test C postemergence ivyleaf morningglory; assay type: in vivo, Ipomoea hederacea; conditions: 0 to 100 scale, 0 no effect, 100 complete control
Method: Compounds evaluated in this test were formulated in a non-phytotoxic solvent mixture which included a surfactant and applied to plants that were grown for various periods of time before treatment (postemergence application). A mixture of sandy loam soil and greenhouse potting mix in a 60:40 ratio was used for the postemergence test.
Plantings of these crops and weed species were adjusted to produce plants of appropriate size for the postemergence test. All plant species were grown using normal greenhouse practices. Crop and weed species include arrowleaf sida (Sida rhombifolia), barnyardgrass (Echinochloa crus-galli), cocklebur (Xanthium strumarium), common ragweed (Ambrosia elatior), corn (Zea mays), cotton (Gossypium hirsutum), eastern black nightshade (Solanum ptycanthum), fall panicum (Panicum dichotomiflorum), field bindweed (Convolvulus arvensis), giant foxtail (Setaria faberii), hairy beggarticks (Bidens pilosa), ivyleaf morningglory (Ipomoea hederacea), johnsongrass (Sorghum halepense), ladysthumb smartweed (Polygonum persicaria), lambsquarters (Chenopodium album), large crabgrass (Digitaria sanguinalis), purple nutsedge (Cyperus rotundus), redroot pigweed (Amaranthus retroflexus), soybean (Glycine max), surinam grass (Brachiaria decumbens), velvetleaf (Abutilon theophrasti) and wild poinsettia (Euphorbia heterophylla).
Treated plants and untreated controls were maintained in a greenhouse for approximately 14, to 21 days, after which all treated plants were compared to untreated controls and visually evaluated. Plant response ratings, summarized in Table C, were based upon a 0 to 100 scale where 0 was no effect and 100 was complete control. A dash response (−) means no test result.

[2] = system: morningglory; assay: Test A morningglory; assay type: in vivo, Ipomoea spp.; conditions: 0 to 10 scale where 0 is no effect and 10 is complete control
Method: Seeds of barnyardgrass (Echinochloa crus-galli), crabgrass (Digitaria spp.), morningglory (Ipomoea spp.), and velvetleaf (Abutilon theophrasti) were planted into a sandy loam soil and treated preemergence by soil drench with test chemicals formulated in a non-phytotoxic solvent mixture which includes a surfactant At the same time, these crop and weed species were also treated postemergence sprayed to runoff, with test chemicals formulated in the same manner.
Plants ranged in height from two to eighteen cm and were in the one to two leaf stage for the postemergence treatment. Treated plants and untreated controls were maintained in a greenhouse for approximately eleven days, after which all treated plants were compared to untreated controls and visually evaluated for injury. Plant response ratings, summarized in Table A, are based on a 0 to 10 scale where 0 is no effect and 10 is complete control.

[3] = system: blackgrass; assay: Test E blackgrass; assay type: in vivo, Alopecurus myosuroides; conditions: Postemergence
In short: (§1)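 Plants were grown under normal greenhouse practice; for postemergence, in sandy loam soil mixed 60:40 with potting mix, treated at the 1- to 4-leaf stage. The compound was in a non-phytotoxic solvent carrying a surfactant. After roughly 21 to 28 days plants were scored visually against untreated plants.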

[4] = system: black nightshade; assay: Test E black nightshade; assay type: in vivo, Solanum nigra; conditions: Postemergence
Method: (§2) Compounds evaluated in this test were formulated in a non-phytotoxic solvent mixture which included a surfactant and applied to plants that were in the 1- to 4-leaf stage (postemergence application). A mixture of sandy loam soil and greenhouse potting mix in a 60:40 ratio was used for the postemergence test.
(§3) Plantings of these crops and weed species were adjusted to produce plants of appropriate size for the postemergence test. All plant species were grown using normal greenhouse practices. Crop and weed species include annual bluegrass (Poa annua), blackgrass (Alopecurus myosuroides), black nightshade (Solanum nigra), chickweed (Stellaria media), common poppy (Papaver rhoeas), deadnettle (Lamium amplexicaule), downy brome (Bromus tectorum), field violet (Viola arvensis), galium (Galium aparine), green foxtail (Setaria viridis), Italian ryegrass (Lolium multiflorum), jointed goatgrass (Aegilops cylindrica), kochia (Kochia scoparia), lambsquarters (Chenopodium album), littleseed canarygrass (Phalaris minor), rape (Brassica napus), redroot pigweed (Amaranthus retroflexus), Russian thistle (Salsola kali), scentless chamomile (Matricaria inodora), spring barley (Hordeum vulgare), sugar beet (Beta vulgaris), sunflower (Helianthus annuus), ivyleaf speedwell (Veronica hederaefolia), spring wheat (Triticum aestivum), winter wheat (Triticum aestivum), wild buckwheat (Polygonum convolvulus), wild mustard (Sinapis arvensis), wild oat (Avena fatua), windgrass (Apera spica-venti) and winter barley (Hordeum vulgare).
(§4) Treated plants and untreated controls were maintained in a greenhouse for approximately 21 to 28 days, after which all treated plants were compared to untreated controls and visually evaluated. […] A dash response (-) means no test result.

[5] = system: deadnettle; assay: Test E deadnettle; assay type: in vivo, Lamium amplexicaule; conditions: Postemergence
In short: as §1

[6] = system: galium; assay: Test E galium; assay type: in vivo, Galium aparine; conditions: Postemergence
Method: […] A mixture of sandy loam soil and greenhouse potting mix in a 60:40 ratio was used for the postemergence test.
as §3, §4

[7] = system: lambsquarters; assay: Test E lambsquarters; assay type: in vivo, Chenopodium album; conditions: Postemergence
Method: as §2, §3, §4

[8] = system: rape; assay: Test E rape; assay type: in vivo, Brassica napus; conditions: Postemergence
In short: as §1

[9] = system: wild buckwheat; assay: Test E wild buckwheat; assay type: in vivo, Polygonum convolvulus; conditions: Postemergence
Method: as §2, §3, §4

[10] = system: field violet; assay: Test E field violet; assay type: in vivo, Viola arvensis; conditions: Preemergence
[11] = system: littleseed canarygrass; assay: Test E littleseed canarygrass; assay type: in vivo, Phalaris minor; conditions: Preemergence
[12] = system: redroot pigweed; assay: Test E redroot pigweed; assay type: in vivo, Amaranthus retroflexus; conditions: Preemergence
[13] = system: sugar beet; assay: Test E sugar beet; assay type: in vivo, Beta vulgaris; conditions: Preemergence
[14] = system: spring wheat; assay: Test E spring wheat; assay type: in vivo, Triticum aestivum; conditions: Preemergence
[15] = system: wild buckwheat; assay: Test E wild buckwheat; assay type: in vivo, Polygonum convolvulus; conditions: Preemergence
[16] = Rate 250 g/ha, 0 to 100 scale (0 no effect, 100 complete control)
[17] = Rate 500 g/ha, 0 to 100 scale, 0 no effect, 100 complete control
[18] = Rate 125 g/ha, 0 to 100 scale (0 no effect, 100 complete control)
[19] = Rate 500 g/ha, 0 to 100 scale where 0 is no effect and 100 is complete control
[20] = Rate 250 g/ha, 0 to 100 scale where 0 is no effect and 100 is complete control

CCn1c(=O)on(C(=O)N(c2ccccc2)C(C)C)c1=O [Compound 117]
Plant response rating I. morningglory ([1]; Rate 140 g/ha): 0
Plant response rating I. morningglory ([1]; Rate 280 g/ha): 0
Plant response rating I. morningglory ([1]; Rate 560 g/ha): 0
Plant response rating I. morningglory ([1]; Rate 1120 g/ha): 0

CC(C)N(C(=O)n1oc(=O)n(N(C)C)c1=O)c1ccccc1 [Compound 225]
Plant response rating, Morningglory ([2]; Postemergence, Rate 1000 g/ha): 10
Plant response rating, Morningglory ([2]; Pre-emergence, Rate 2000 g/ha): 8

CC(C)N(C(=O)n1oc(=O)n(C(C)C)c1=O)c1ccc(Cl)cc1 [Compound 114]
Plant response rating, Morningglory ([2]; Postemergence, Rate 1000 g/ha): 10
Plant response rating, Morningglory ([2]; Pre-emergence, Rate 2000 g/ha): 6
Plant response rating, Blackgrass ([3]; Rate 125 g/ha, 0 to 100 scale): 0
Plant response rating, Blackgrass [3, 16]: 20
Plant response rating, Blackgrass [3, 17]: 65
Plant response rating, Blk nightshade ([4]; Rate 125 g/ha, 0 to 100 scale): 50
Plant response rating, Blk nightshade [4, 16]: 40
Plant response rating, Blk nightshade [4, 17]: 80
Plant response rating, Deadnettle ([5]; Rate 125 g/ha, 0 to 100 scale): 20
Plant response rating, Deadnettle [5, 16]: 10
Plant response rating, Deadnettle [5, 17]: 70
Plant response rating, Galium ([6]; Rate 125 g/ha, 0 to 100 scale): 10
Plant response rating, Galium [6, 16]: 50
Plant response rating, Galium [6, 17]: 85
Plant response rating, Lambsquarters ([7]; Rate 125 g/ha, 0 to 100 scale): 30
Plant response rating, Lambsquarters [7, 16]: 30
Plant response rating, Lambsquarters [7, 17]: 40
Plant response rating, Rape ([8]; Rate 125 g/ha, 0 to 100 scale): 55
Plant response rating, Rape [8, 16]: 50
Plant response rating, Rape [8, 17]: 55
Plant response rating, Wild buckwheat ([9]; Rate 125 g/ha, 0 to 100 scale): 20
Plant response rating, Wild buckwheat [9, 16]: 30
Plant response rating, Wild buckwheat [9, 17]: 30
Plant response rating, Field violet [10, 18]: 0
Plant response rating, Field violet ([10]; Rate 250 g/ha, 0 to 100 scale): 0
Plant response rating, Field violet [10, 19]: 10
Plant response rating, LS canarygrass [11, 18]: 50
Plant response rating, LS canarygrass ([11]; Rate 250 g/ha, 0 to 100 scale): 60
Plant response rating, LS canarygrass [11, 19]: 80
Plant response rating, Redroot pigweed [12, 18]: 50
Plant response rating, Redroot pigweed ([12]; Rate 250 g/ha, 0 to 100 scale): 65
Plant response rating, Redroot pigweed [12, 19]: 100
Plant response rating, Sugar beet [13, 18]: 20
Plant response rating, Sugar beet ([13]; Rate 250 g/ha, 0 to 100 scale): 40
Plant response rating, Sugar beet [13, 19]: 50
Plant response rating, Spring Wheat [14, 18]: 0
Plant response rating, Spring Wheat ([14]; Rate 250 g/ha, 0 to 100 scale): 10
Plant response rating, Spring Wheat [14, 19]: 20
Plant response rating, Wild buckwheat [15, 18]: 20
Plant response rating, Wild buckwheat ([15]; Rate 250 g/ha, 0 to 100 scale): 50
Plant response rating, Wild buckwheat [15, 19]: 80

Cc1cccc(Cl)c1-n1c(=O)on(C(=O)N(c2ccc(F)cc2)C(C)C)c1=O [Compound 53]
Plant response rating, Morningglory ([2]; Postemergence, Rate 1000 g/ha): 0
Plant response rating, Morningglory ([2]; Pre-emergence, Rate 2000 g/ha): 0

CCc1cccc(C)c1-n1c(=O)on(C(=O)N(c2ccc(F)cc2)C(C)C)c1=O [Compound 52]
Plant response rating, Morningglory ([2]; Postemergence, Rate 1000 g/ha): 1
Plant response rating, Morningglory ([2]; Pre-emergence, Rate 2000 g/ha): 0

CC(C)N(C(=O)n1oc(=O)n(C(C)C)c1=O)c1ccc(F)cc1 [Compound 131]
Plant response rating I. morningglory ([1]; Rate 140 g/ha): 0
Plant response rating I. morningglory ([1]; Rate 280 g/ha): 0
Plant response rating I. morningglory ([1]; Rate 560 g/ha): 20
Plant response rating I. morningglory ([1]; Rate 1120 g/ha): 50
Plant response rating, Blackgrass ([3]; Rate 62 g/ha, 0 to 100 scale): 85
Plant response rating, Blackgrass ([3]; Rate 125 g/ha, 0 to 100 scale): 20
Plant response rating, Blackgrass [3, 17]: 75
Blackgrass plant response rating [3, 20]: 60
Plant response rating, Blk nightshade ([4]; Rate 62 g/ha, 0 to 100 scale): 50
Plant response rating, Blk nightshade ([4]; Rate 125 g/ha, 0 to 100 scale): 50
Plant response rating, Blk nightshade [4, 17]: 70
Blk nightshade plant response rating [4, 20]: 60
Plant response rating, Deadnettle ([5]; Rate 62 g/ha, 0 to 100 scale): 30
Plant response rating, Deadnettle ([5]; Rate 125 g/ha, 0 to 100 scale): 30
Plant response rating, Deadnettle [5, 17]: 50
Deadnettle plant response rating [5, 20]: 30
Plant response rating, Galium ([6]; Rate 62 g/ha, 0 to 100 scale): 50
Plant response rating, Galium ([6]; Rate 125 g/ha, 0 to 100 scale): 10
Plant response rating, Galium [6, 17]: 50
Galium plant response rating [6, 20]: 0
Plant response rating, Lambsquarters ([7]; Rate 62 g/ha, 0 to 100 scale): 0
Plant response rating, Lambsquarters ([7]; Rate 125 g/ha, 0 to 100 scale): 0
Plant response rating, Lambsquarters [7, 17]: 0
Lambsquarters plant response rating [7, 20]: 0
Plant response rating, Rape ([8]; Rate 62 g/ha, 0 to 100 scale): 10
Plant response rating, Rape ([8]; Rate 125 g/ha, 0 to 100 scale): 0
Plant response rating, Rape [8, 17]: 0
Rape plant response rating [8, 20]: 0
Plant response rating, Wild buckwheat ([9]; Rate 62 g/ha, 0 to 100 scale): 50
Plant response rating, Wild buckwheat ([9]; Rate 125 g/ha, 0 to 100 scale): 0
Plant response rating, Wild buckwheat [9, 17]: 0
Wild buckwheat plant response rating [9, 20]: 0
Plant response rating, Field violet [10, 18]: 20
Field violet plant response rating (0 to 100 scale) ([10]; Rate 250 g/ha): 20
Plant response rating, Field violet [10, 19]: 40
Plant response rating, LS canarygrass [11, 18]: 70
LS canarygrass plant response rating (0 to 100 scale) ([11]; Rate 250 g/ha): 70
Plant response rating, LS canarygrass [11, 19]: 100
Plant response rating, Redroot pigweed [12, 18]: 100
Redroot pigweed plant response rating (0 to 100 scale) ([12]; Rate 250 g/ha): 100
Plant response rating, Redroot pigweed [12, 19]: 95
Plant response rating, Sugar beet [13, 18]: 80
Sugar beet plant response rating (0 to 100 scale) ([13]; Rate 250 g/ha): 60
Plant response rating, Sugar beet [13, 19]: 90
Plant response rating, Spring Wheat [14, 18]: 70
Spring Wheat plant response rating (0 to 100 scale) ([14]; Rate 250 g/ha): 100
Plant response rating, Spring Wheat [14, 19]: 100
Plant response rating, Wild buckwheat [15, 18]: 30
Wild buckwheat plant response rating (0 to 100 scale) ([15]; Rate 250 g/ha): 70
Plant response rating, Wild buckwheat [15, 19]: 100
